How the values were obtained:
[1] = molecular target: T1, IFN-α 2b (Homo sapiens, UniProt P01563); assay: Microscale thermophoresis (MST) binding affinity of FILs with labelled IFN-α 2b; conditions: for Kd: labelled IFN-α 2b 2.7 μM, 5 mM NaH2PO4 pH 7.4, 25 °C, ± = Kd confidence of the fitting
T1 construct: purchased Sigma-Aldrich SRP4595; host or cells: E. coli
Method: Several dilution series of 16 samples of 20 μL were prepared in triplicate for each studied system. All the solutions were prepared in the buffer of the protein, 5 mM of NaH2PO4 (pH = 7.4), and PCR tubes. In the first tube (1 out 16) 20 μL of FIL stock solution was added at twofold the maximum concentration defined for each assay. In the remaining 15 tubes, 10 μL of buffer was added, followed by the series dilution of the FIL. […] The selected concentrations cover the range where the distinct CACs are formed in each FIL. The excitation power was determined by a pre-test and set to 20% whereas the MST power was set to medium (standard). The assays were executed in standard capillaries and triplicates. The results were processed using the MO.Affinity Analysis v2.3 software (NanoTemper Technologies, Munich, Germany).
In the process of labelling, commonly, one amine per protein is labelled, statistically distributing the position of the dye. […] As explained in the experimental section, in each run of MST, a maximum concentration is chosen and is consecutively diluted in 16 capillaries.

[2] = molecular target: T1, IFN-α 2b; assay: Intrinsic fluorescence spectroscopy of IFN-α 2b with FILs (λmax shift, Stern–Volmer quenching); format: binding
Method: The concentrations were chosen to cover the range where the different aggregates of the FILs are formed. Samples, equilibrated for 30 min at room temperature, and 400 μL of each solution were transferred to a quartz cuvette of 10 mm pathlength and excited at 280 nm, collecting the fluorescence intensity in a wavelength range of 300 to 450 nm. The width of the excitation and emission slit was set to 5 nm for both cases. The spectra of FIL solutions (blanks) were discounted to the spectra of FIL + protein samples to avoid any possible effect of FIL concentration increment in the fluorescence intensity.
A very well-known equation, the Stern–Volmer, was used to characterize the quenching occurring in this region. This equation characterizes the collisional quenching that can occur when the excited state of the fluorophore is disabled due to contact with another molecule (quencher), without chemical alteration. Therefore, the collisional quenching is described by:(11) F0/F=1+K[Q]=1+kqτ0[Q] where F0 and F are the fluorescence intensities of the fluorophore in the absence and presence of the quencher, respectively, K is the Stern–Volmer quenching constant, kq is the biomolecular quenching constant, τ0 is the unquenched lifetime, and [Q] is the quencher concentration. […] This value gives information on the sensitivity of the fluorophore to a quencher.

[3] = Dynamic light scattering: aggregate size and polydispersity index; format: physicochemical; conditions: 150 mM NaH2PO4, 25°C
Method: These concentrations were chosen to comprise two different aggregates of each FIL, above the 1st CAC and the 3rd CAC. […] Therefore, 20 μL was transferred into a quartz cell of 10 mm pathlength and measured at 25 °C.
Moreover, the polydispersity index (PdI) was obtained by DLS which determines the heterogeneity of the sample in the function of the size.

[4] = design: method as in doi:10.5772/INTECHOPEN.96336, doi:10.1016/j.molliq.2022.119285, PMID 25580898; conditions: cited from earlier work
[5] = cited from earlier work

T1 sequence (P01563 24-188): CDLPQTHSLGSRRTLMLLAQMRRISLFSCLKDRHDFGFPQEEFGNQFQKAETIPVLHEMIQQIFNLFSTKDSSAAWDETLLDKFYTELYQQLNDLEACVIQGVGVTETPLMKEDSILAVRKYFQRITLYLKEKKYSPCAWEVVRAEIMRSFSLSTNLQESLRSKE

| SMILES | binding to IFN-α 2b (MST) ([1]; four runs, maximum concentrations 15, 35, 70, 375 mM) | Stern–Volmer quenching constant K ([2]; IFN-α 2b 20 μg/mL, region ~14 mM to ~110 mM FIL, 5 mM NaH2PO4 pH 7.4, excitation 280 nm) [mM⁻¹] | red shift of λmax ([2]; concentration close to the 3rd CAC, IFN-α 2b 20 μg/mL) [nm] | red shift of λmax ([2]; concentrations above 384 mM, IFN-α 2b 20 μg/mL) | biomolecular quenching constant kq ([2]; from K and τ0 of IFN-α 2b) [M⁻¹ s⁻¹] | Polydispersity index (PdI) ([3]; 29.8 mM FIL) | Polydispersity index (PdI) ([3]; 248.0 mM FIL) | miscibility in water [4] | toxicity [5] | Kd ([1]; assay 70 − 2.1 × 10^−3 mM FIL) [mM] | Kd ([1]; assay 375 − 1.1 × 10^−2 mM FIL) [mM] |
| --- | --- | --- | --- | --- | --- | --- | --- | --- | --- | --- | --- |
| C[N+](C)(C)CCO.O=S(=O)([O-])C(F)(F)C(F)(F)C(F)(F)C(F)(F)F [[N1112(OH)][C4F9SO3], (2-Hydroxyethyl)trimethylammonium perfluorobutanesulfonate] | binding only occurs for the runs where concentrations were above the 2nd and 3rd CAC | 0.00195 | 3 | up to 8 nm | 6.61e+08 | 0.784 | 0.543 | full miscibility in water | negligible toxicity |  |  |
| O=S(=O)(O)C(F)(F)C(F)(F)C(F)(F)C(F)(F)F [[N1112(OH)][C4F9SO3], (2-Hydroxyethyl)trimethylammonium perfluorobutanesulfonate] |  |  |  |  |  |  |  |  |  | 0.000597 | 54.7 ± 36.9 |

Source: publication PMC9181987, “Disclosing the Potential of Fluorinated Ionic Liquids as Interferon-Alpha 2b Delivery Systems” (Nanomaterials, 2022)
